The values that follow are results of earlier work, collected in patent EP4810022A1, “MICROPARTICLES COMPRISING TIRZEPATIDE OR PHARMACEUTICALLY ACCEPTABLE SALT THEREOF, AND MANUFACTURING METHOD THEREFOR” (Inventage Lab Inc., priority 2024, dated 2025).

For data set [1] the following is noted: when taken for one year.
The conditions of data set [2]: reported.

Regarding `CCCCCCCCCCC[C@@H](C[C@@H]1OC(=O)[C@H]1CCCCCC)OC(=O)[C@H](CC(C)C)NC=O` [orlistat], in data set [1], the body weight loss result is listed as “about 4 kg”.
For the compound `Cc1c(C(=O)NN2CCCCC2)nn(-c2ccc(Cl)cc2Cl)c1-c1ccc(Cl)cc1` [rimonabant], the side effects entry in data set [2] is “central nervous system side effects”.
`CC(C)CC(N(C)C)C1(c2ccc(Cl)cc2)CCC1` (stereo not drawn) [sibutramine]: in data set [2], the side effects result is on record as “cardiovascular side effects”.
